Measurements published in article PMC3032886, “Cell-Penetrant, Nanomolar O-GlcNAcase Inhibitors Selective against Lysosomal Hexosaminidases” (Chemistry & Biology, 2010).
Where two headings read alike, the source gives them in different places.

Tests used:
hHexA/B [1] = experiment: hHexA/B inhibition, fluorogenic 4MU-NAG substrate; type: biochemical, human; settings: for Ki: read-out: Ki hHex A/B
hOGA = target: T1, hOGA (Homo sapiens, UniProt O60502); experiment: hOGA steady-state kinetics, fluorogenic assay, competitive inhibition fit; type: biochemical
T1 construct: made in house
T1 sequence (O60502 1-916): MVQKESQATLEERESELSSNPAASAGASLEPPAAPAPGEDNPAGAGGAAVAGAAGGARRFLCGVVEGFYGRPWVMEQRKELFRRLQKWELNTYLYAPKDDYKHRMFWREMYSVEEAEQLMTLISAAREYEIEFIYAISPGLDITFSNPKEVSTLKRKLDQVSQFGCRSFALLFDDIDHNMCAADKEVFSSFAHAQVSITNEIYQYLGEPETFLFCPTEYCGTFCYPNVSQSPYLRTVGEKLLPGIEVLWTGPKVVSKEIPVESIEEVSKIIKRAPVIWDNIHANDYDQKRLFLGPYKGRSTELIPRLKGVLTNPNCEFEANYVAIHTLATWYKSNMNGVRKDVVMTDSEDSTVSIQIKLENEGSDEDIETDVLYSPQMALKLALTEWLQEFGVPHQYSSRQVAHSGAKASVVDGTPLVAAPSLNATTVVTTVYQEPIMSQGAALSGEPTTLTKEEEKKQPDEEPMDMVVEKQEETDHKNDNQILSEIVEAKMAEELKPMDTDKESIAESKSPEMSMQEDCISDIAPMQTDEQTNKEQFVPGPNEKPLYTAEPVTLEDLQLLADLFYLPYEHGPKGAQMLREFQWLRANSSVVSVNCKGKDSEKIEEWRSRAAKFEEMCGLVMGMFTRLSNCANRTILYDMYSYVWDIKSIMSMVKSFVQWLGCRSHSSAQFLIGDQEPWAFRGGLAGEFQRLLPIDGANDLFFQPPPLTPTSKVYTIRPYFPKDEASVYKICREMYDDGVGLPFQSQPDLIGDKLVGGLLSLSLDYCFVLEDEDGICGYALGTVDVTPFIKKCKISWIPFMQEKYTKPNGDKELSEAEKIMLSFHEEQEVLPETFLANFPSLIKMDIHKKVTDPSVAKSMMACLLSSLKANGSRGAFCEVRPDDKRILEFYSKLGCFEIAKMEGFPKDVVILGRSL

CpOGA-wild-type [2] = target: T2, CpOGA-wild-type (Clostridium perfringens, UniProt Q0TR53); experiment: biochemical; parameters: species or system C. perfringens
T2 sequence (Q0TR53 31-624 limits assumed): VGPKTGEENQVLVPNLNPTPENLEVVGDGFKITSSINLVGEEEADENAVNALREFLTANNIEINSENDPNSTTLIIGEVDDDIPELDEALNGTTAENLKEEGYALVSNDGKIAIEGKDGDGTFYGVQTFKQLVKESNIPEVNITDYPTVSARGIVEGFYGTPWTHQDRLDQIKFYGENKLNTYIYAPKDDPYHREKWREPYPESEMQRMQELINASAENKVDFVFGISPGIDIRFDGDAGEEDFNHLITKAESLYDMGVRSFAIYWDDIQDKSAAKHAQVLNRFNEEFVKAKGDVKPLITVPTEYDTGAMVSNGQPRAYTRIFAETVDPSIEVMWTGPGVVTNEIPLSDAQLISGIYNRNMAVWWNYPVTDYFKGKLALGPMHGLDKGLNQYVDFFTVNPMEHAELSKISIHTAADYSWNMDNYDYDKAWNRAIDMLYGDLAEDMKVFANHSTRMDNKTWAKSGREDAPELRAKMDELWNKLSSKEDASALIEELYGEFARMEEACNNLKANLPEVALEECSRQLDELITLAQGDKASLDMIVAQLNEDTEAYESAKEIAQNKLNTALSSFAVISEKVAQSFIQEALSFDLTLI

endogenous hOGA [3] = target: T3, endogenous hOGA (Homo sapiens, UniProt O60502); experiment: Cellular O-GlcNAcylation western blot (CTD110.6 antibody), densitometry; type: cell-based; settings: HEK293 cells, 6 hr; for EC50: densitometry, read-out: EC50 increase of cellular O-GlcNAcylation (western blot)
T3 construct: activity on endogenous hOGA in a cell-based assay with HEK293 cells; endogenous in cells; host or cells: HEK293
T3 sequence (O60502 1-916): T1 sequence (O60502 1-916)
Procedure: (§1) The novel GlcNAcstatin derivatives were investigated for their activity on endogenous hOGA in a cell-based assay with HEK293 cells. […] Furthermore, we determined the EC50 of GlcNAcstatins G and H by O-GlcNAc microscopy assay (Figure 3B; see Figure S1 available online). Elevated total O-GlcNAc levels in HEK293 cells were quantified and normalized over a reference DAPI signal.
For the O-GlcNAc western blots, HEK293 cells were cultured and treated with GlcNAcstatin derivatives as described previously ([Dorfmueller et al., 2009]). Cell lysates were separated by SDS PAGE, and O-GlcNAcylation was detected by western blotting with the anti-O-GlcNAc CTD110.6 antibody and quantified ([Dorfmueller et al., 2009]). To calculate the EC50 values of GlcNAcstatins C, F, and G, the data, background corrected with the untreated cells, were plotted against the inhibitor concentrations using the program GraphPad Prism (http://www.graphpad.com).

hHexA/B [4] = settings: read-out: Ki hHex A/B; cited from earlier work
endogenous hOGA [5] = target: T3, endogenous hOGA; experiment: O-GlcNAc microscopy assay (RL2 immunostaining, IN Cell Analyzer); type: cell-based; settings: HEK293 cells, 6 hr, normalized over DAPI; read-out: EC50 total O-GlcNAc levels (microscopy assay)
Procedure: as §1
For the microscopy studies, HEK293 cells were seeded in clear flat-bottom 96 well assay plates (Corning 3340) and grown for 12 hr at 37°C under 5% CO2. Cells were treated with concentrations of GlcNAcstatins G and H (1% final DMSO concentration) for 6 hr. Cells were washed twice with 50 μl PBS and fixed in 3.7% formaldehyde for 10 min at 37°C. After washing with TBST (0.1% Triton X-100) and permeabilized for further 10 min, the cells were blocked with 2% BSA and 0.1% normal donkey serum in TBST for 1 hr at RT, followed by washing twice with TBST. Cells were immunostained with the RL2 O-GlcNAc antibody (1/500) for 12 hr at 4°C and fluorescent secondary (1/500) for 1 hr at RT. Cells were further washed twice with TBS before incubation with DAPI (5 μg/ml) and CellMask (1/25000). Cells were washed twice with TBS and stored in 50 μl PBS. Images were taken and analyzed with the IN Cell Analyzer 1000 system (GE Healthcare).

CpOGA-wild-type [6] = target: T2, CpOGA-wild-type; settings: cited from earlier work

Question: For `O=C(CCS)N[C@H]1c2nc(CCc3ccccc3)cn2[C@H](CO)[C@@H](O)[C@@H]1O` [GlcNAcstatin F], which Ki (hHexA/B [1]) is on record?
Answer: 11 ± 0.6 µM

Question: What about the Ki (hOGA; physiological pH 7.3) of the same molecule?
Answer: 0.0112 ± 0.0014 µM

Question: And the Ki (CpOGA-wild-type [2])?
Answer: 3.2 ± 0.2 pM

Question: And the EC50 (endogenous hOGA [3])?
Answer: 0.29 µM

Question: For Thiamet-G, which Ki (hHexA/B [4]) is on record?
Answer: 750 µM

Question: Which results are given for `CC(=O)N[C@H]1/C(=N/OC(=O)Nc2ccccc2)O[C@H](CO)[C@@H](O)[C@@H]1O` [PUGNAc, reference compound]?
Answer: Ki (CpOGA-wild-type [2]): 5400 ± 400 pM; Ki (hHexA/B [4]): 0.036 µM

Question: What does the source list for `C=CC=CC(=O)NC1c2nc(CCc3ccccc3)cn2C(CO)C(O)C1O` (stereo not drawn) [GlcNAcstatin G]?
Answer: IC50 (hHexA/B [1]): ~7000 µM; Ki (hHexA/B [1]): > 3700 µM; Ki (hOGA; physiological pH 7.3): 0.0041 ± 0.0007 µM; Ki (CpOGA-wild-type [2]): 7.8 ± 0.7 pM; EC50 (endogenous hOGA [3]): 0.02 µM; concentration in culture media inducing maximum levels of O-GlcNAcylation (endogenous hOGA [3]; western blot): 100 nM; EC50 (endogenous hOGA [5]): 0.003 µM

Question: Which Ki (hHexA/B [1]) does the source give for `CC(C)C(=O)N[C@H]1c2nc(CCc3ccccc3)cn2[C@H](CO)[C@@H](O)[C@@H]1O` [GlcNAcstatin C] here?
Answer: 0.6 ± 0.1 µM

Question: What about the “pH optimum of hOGA inhibition” value (hOGA; McIlvaine buffer, pH range 4.9–8.1, 1/Ki versus pH) of the same molecule?
Answer: 6.6

Question: And the Ki (hOGA; pH 6.6 (maximum potency))?
Answer: 0.0029 µM

Question: What about the Ki (hOGA; physiological pH 7.3) of the same molecule?
Answer: 0.0032 ± 0.0009 µM

Question: And the EC50 (endogenous hOGA [3])?
Answer: 0.02 µM

Question: What about the Ki (CpOGA-wild-type [6]) of the same molecule?
Answer: 4.6 ± 0.2 pM

Question: What does the source list for `CCCCC(=O)N[C@H]1c2nc(CCc3ccccc3)cn2[C@H](CO)[C@@H](O)[C@@H]1O` [GlcNAcstatin H]?
Answer: Ki (hHexA/B [1]; Cheng-Prusoff, approximate values obtained after including an artificial 100% inhibition point (footnote d)): 100 ± 30 µM; Ki (hOGA; physiological pH 7.3): 0.0026 ± 0.0003 µM; Selectivity (hHexA/B/hOGA) (hOGA; ratio of Ki hHexA/B to Ki hOGA): 35,000; EC50 (endogenous hOGA [5]): 0.042 µM
